The test system of experiment [1] is cumulus enclosed oocytes (CEO). The experiment is described as follows: Oocyte test, inhibition of FF-MAS induced meiosis in cumulus enclosed oocytes (CEO). It is filed as cell-based, mice. The method, then: (§1) The ovaries were dissected out and the oocytes were isolated in Hx-medium (see below) under a stereo microscope by manual rupture of the follicles using a pair of 27 gauge needles. Spherical oocytes displaying an intact germinal vesicle (GV) were divided in cumulus enclosed oocytes (CEO) and naked oocytes (NO) and placed in α-minimum essential medium (α-MEM without ribonucleosides, Gibco BRL, Cat. No. 22561) supplemented with 3 mM hypoxanthine (Sigma Cat. No. H-9377), 8 mg/ml Human Serum Albumin (HSA, State Serum Institute, Denmark), 0.23 mM pyruvate (Sigma, Cat. No S-8636), 2 mM glutamine (Flow Cat. No. 16-801), 100 IU/mi penicillin and 100 μg/ml streptomycin (Flow, Cat No. 16-700). This medium was designated Hx-medium.
(§2) The cultures were performed at 37° C. and 100% humidity with 5% CO2 in air. The culture time was 22-24 hours.
(§3) By the end of the culture period, the number of oocytes with germinal vesicle (GV) or germinal vesicle breakdown (GVB) and those with polar body (PB) was counted using a stereo microscope or an inverted microscope with differential interference contrast equipment. The percentage of oocytes with GVB per total number of oocytes and the percentage of oocytes with PB per total number of oocytes was calculated in the test cultures and compared to the control culture.
(§4) Germinal vesicle (GV) oocytes were obtained from immature FSH treated female mice using the same methods as described in Example 1 (see above). The oocytes were rinsed three times in Hx-medium and oocytes of uniform size were divided into groups of CEO and NO. […] CEO and NO were cultured in Hx-medium supplemented with 0.7-7.0 μM FF-MAS in co-culture with the test compounds in different concentrations in 4-well multidishes (Nunclon, Denmark) in which each well contained 0.4 ml of Hx-medium and 35-45 oocytes. One control (i.e., 35-45 oocytes cultured in Hx-medium containing FF-MAS with no addition of test compound) was always run simultaneously with the test cultures, which were supplemented with different concentrations of the compounds to be tested.

Experiment [2] has as its system naked oocytes (NO). The experiment is described as follows: Oocyte test, inhibition of FF-MAS induced meiosis in naked oocytes (NO). It is filed as cell-based, mice. The method, then:
as §1, §2, §3, §4

The next experiment concerns CEO and NO. The conditions noted are these: CEO and NO in vitro, previously shown; cited from earlier work.
Experiment [3] relates to naked oocytes (NO). The experiment is described as follows: Oocyte test, activation of meiosis in naked oocytes (NO) cultured in Hx-medium. The class given is cell-based, mice. The protocol:
(§5) Oocytes were obtained from immature female mice (C57BI/6J×DBA/2J F1-hybrids, Bomholtgaard, Denmark) weighing 13-16 grams, that were kept under controlled lighting and temperature. The mice received an intra-peritoneal injection of 0.2 ml gonadotropins (Gonal-F, Serono, Solna, Sweden, containing 20 IU FSH, alternatively, Puregon, Organon, Swords, Ireland containing 20 IU FSH) and 48 hours later the animals were killed by cervical dislocation.
as §1
(§6) The oocytes were rinsed three times in Hx-medium and oocytes of uniform size were divided into groups of CEO and NO. CEO and NO were cultured in 4-well multidishes (Nunclon, Denmark) in which each well contained 0.4 ml of Hx-medium and 35-45 oocytes. […]
as §3

Experiment [4] has as its system cumulus enclosed oocytes (CEO). The experiment is described as follows: Oocyte test, activation of meiosis in cumulus enclosed oocytes (CEO) cultured in Hx-medium. The class given is cell-based, mice. The protocol: as §5, §1, §6, §3
[5] abbreviates: FF-MAS 0.7 μM + 22R 25 μM (ratio 1:36).
Setting [6] is: FF-MAS 7 μM + 22R 12.5 μM (ratio 1:2).
[7] abbreviates: FF-MAS 0.7 μM + 22R 13 μM (ratio 1:19).
[8] abbreviates: FF-MAS 1.2 μM + 22R 25 μM (ratio 1:20).
[9] abbreviates: FF-MAS 0.7 μM alone (control, no 22R).
Setting [10] is: FF-MAS 7 μM alone (control, no 22R).
The mark [11] stands for this setting: FF-MAS 1.2 μM alone (control, no 22R).
Where [12] appears, read: NO, test concentration 7.0 μM, culture 22-24 hours.
[13] abbreviates: CEO, test concentration 7.0 μM, culture 22-24 hours.

Molecules are shown by their SMILES.

Take `CC(C)CC[C@@H](O)[C@@H](C)[C@H]1CC[C@H]2[C@@H]3CC=C4C[C@@H](O)CC[C@]4(C)[C@H]3CC[C@]12C` [Example 22R, cholest-5-en-3β,(22R)-diol]: the “% GVB” value in experiment [1] (setting [5]) was 6.9%; in experiment [1] (setting [6]), 21%; with naked oocytes (NO) [2] (setting [7]), 16.9%; in the experiment with naked oocytes (NO) [2] (setting [5]) it was 2.9%; in the experiment with naked oocytes (NO) [2] (setting [8]), 4.6%. The “% PB” value in experiment [1] (setting [5]) is listed as 3.4%; in experiment [1] (setting [6]) it was 3.5%; in the experiment on naked oocytes (NO) [2] (setting [7]) it was 0%; with naked oocytes (NO) [2] (setting [5]), 0%; in the experiment on naked oocytes (NO) [2] (setting [8]), 0%. For the same molecule, the “antagonism of FF-MAS induced resumption of meiosis” value (in experiment [1] (co-culture with FF-MAS); in the experiment on naked oocytes (NO) [2] (co-culture with FF-MAS)) was “antagonises the FF-MAS induced resumption of meiosis in a dose-related manner” throughout.

For `CC(C)=CCC[C@@H](C)[C@H]1CC=C2C3=C(CC[C@@]21C)[C@@]1(C)CC[C@H](O)C(C)(C)C1CC3` (stereo partly drawn) [FF-MAS, 4,4-Dimethylcholest-8,14,24-trien-3β-ol, reference compound], the “% GVB” value in experiment [1] (setting [9]) was found to be 21.7%; in experiment [1] (setting [10]), 39.0%; in the experiment on naked oocytes (NO) [2] (setting [9]), 33.0%; in the experiment on naked oocytes (NO) [2] (setting [11]), 19.5%. In addition, the “% PB” value in experiment [1] (setting [9]) is given as 10.8%; in experiment [1] (setting [10]), 18.9%; with naked oocytes (NO) [2] (setting [9]) it was 7.8%; in the experiment with naked oocytes (NO) [2] (setting [11]), 9.5%. Besides, the induction of meiosis entry with CEO and NO was “induce meiosis in CEO and NO in vitro”.

For `CC(C)CCC[C@@H](C)[C@H]1CC[C@H]2[C@@H]3CC=C4[C@@H](O)[C@@H](O)CC[C@]4(C)[C@H]3CC[C@]12C` [cholest-5-en-3β,4β-diol], the entries for the “% GVB” value (in the experiment on naked oocytes (NO) [3] (setting [12]); in experiment [4] (setting [13])) were 50.2% and 44.4%, respectively. The “% PB” value is recorded as 17.2% in the experiment on naked oocytes (NO) [3] (setting [12]) and 25.9% in experiment [4] (setting [13]). The induction of meiosis result (in the experiment with naked oocytes (NO) [3] (naked oocyte cultured in vitro); in experiment [4] (cumulus enclosed oocyte cultured in vitro)) was “induces meiosis” in each case.

Source of the values: patent US20030032824A1, “Meiosis regulating compounds” (priority 1996, published 2003).
